Laboratory results as given in US20030032674A1, “Use of unsaturated fatty acids to treat severe inflammatory diseases” (priority 2001, published 2003).

Columns and labels:
COX-2 promoter [1] = test: COX-2 promoter luciferase reporter gene assay, transiently transfected RAW 264.7 cells; assay type: cell-based, murine; parameters: lauric acid-induced COX-2 expression on co-transfection of dominant-negative IkBa / lauric acid-induced COX-2 expression on co-transfection of dominant-negative PPARγ / lauric acid-induced COX-2 expression on co-transfection of dominant-negative TLR4 [DTLR4 (P712H)]: dose or concentration left out as unconfirmed
Text: Plasmids and DNA Constructs—All plasmids and constructs were obtained or made as reported in either S. H. Rhee and D. Hwang, “Murine TOLL-like receptor 4 confers lipopolysaccaride responsiveness as determined by activation of NFκB and expression of the inducible cyclooxygenase,” Journal of Biological Chemistry, vol. 275, pp. 34035-34040 (2000); and J. Y. Lee et al., “Saturated fatty acids, but not unsaturated fatty acids, induce the expression of cyclooxygenase-2 mediated through TOLL-like receptor 4,” Journal of Biological Chemistry, vol. 276, pp. 16683-16689 (2001). Briefly, the luciferase reporter plasmids (pGL2) containing the promoter region of the murine COX-2 gene (−3201/+93 or −1017/+93) were provided by David Dewitt (Michigan State University, East Lansing, Mich.). To prepare the wild-type COX-2 promoter fragment, polymerase chain reaction (PCR) was performed with the primers named Kpn-COX2-For and Hind-COX2-Rev using the murine COX-2 (−1017/+93) luciferase reporter plasmid as a template. To prepare the mutant COX-2 promoter fragment containing mutated NFκB site, Kpn-COX2-Fmut and Hind-COX2-Rev were used as primers. Each PCR fragment was inserted into the KpnI and HindIII sites of pGL2 to generate the wild-type or mutant COX-2 (−410/+86) luciferase reporter constructs, respectively. Sequences for wild-type NFκB site and the primers were used as reported elsewhere. (See Lee et al., 2001). The 2×NFκB-luciferase reporter construct was a gift from Frank Mercurio (Signal Pharmaceuticals, San Diego, Calif.). HSP70-β-galactosidase reporter plasmid was a gift from Robert Modlin (University of California, Los Angeles, Calif.). The expression plasmids for a constitutively active form of TLR4 (DTLR4) and a dominant-negative mutant, DTLR4 (P712H) were prepared as previously described. See S. H. Rhee et al., 2000. The expression plasmid of the wild-type NFκB-inducing kinase (NIK), pRK-NIK(wt) was a gift from Mike Rothe (Tularik, South San Francisco, Calif.). The dominant-negative mutant of inhibitor kB (pCMV4-IkBa(DN)) was provided by Dean Ballard (Vanderbilt University, Nashville, Tenn.). 4×NFκB-luciferase reporter construct was purchased from Clontech (Palo Alto, Calif.) and used for transient transfection. Heat shock protein 70 (HSP70)-β-galactosidase reporter plasmid was from Robert Modlin (University of Calif., Los Angeles, Calif.). The expression plasmids for a wild-type TLR2 and a dominant-negative mutant [TLR2 (P681H)] were from C. B. Wilson (University of Washington, Seattle, Wash.). Constitutively active chimeric CD4-TLR4 was obtained from C. A. Janeway, Jr. (Yale University, New Haven, Conn.). The constitutively active form of MyD88 (MyD88(ΔToll)) and the dominant-negative mutant, MyD88(ΔDD) were kindly provided by Jurg Tschopp (University of Lausanne, Switzerland). The dominant-negative mutant of mouse PPARg [pCMX-PPARg(L466A/L467A)] was a gift from Ira Schulman (Ligand Pharmaceuticals, San Diego, Calif.). All DNA constructs were prepared in large scale using the EndoFree Plasmid Maxi kit (Qiagen, Chatsworth, Calif.) for transfection.
Transient transfection and luciferase assay—These procedures were performed as described in S. H. Rhee et al., “Murine TOLL-like receptor 4 confers lipopolysaccharide responsiveness as determined by activation of NFκB and expression of the inducible cyclooxygenase,” J. Biol. Chem., vol. 275, pp. 34035-34040 (2000); and J. H. Paik et al., “Two opposing effects of non-steroidal anti-inflammatory drugs on the expression of the inducible cyclooxygenase, Mediation through different signaling pathways,” J. Biol. Chem., vol. 275, pp. 28173-28179 (2000). Briefly, RAW 264.7 cells were plated in 6-well plates (5×10^5 cells/well) and transfected with luciferase reporter plasmids and HSP70-β-galactosidase plasmid as an internal control using SuperFect transfect reagent (Quiagen) according to the manufacturer's instructions. […]

COX-2 promoter [2] = test: COX-2 promoter luciferase reporter, stably transfected RAW 264.7 cells, TLR agonist-induced; assay type: cell-based, murine; conditions: pretreated 3 hrs
Procedure: Preparation of stably transfected cells with luciferase reporter plasmids. RAW 264.7 cells (1×10^6 cells) were plated in 100 mm dish and transfected with murine COX-2 promoter (−3.2 kb) luciferase plasmid using Superfect Transfection reagent (Qiagen) according to the manufacturer's instruction. pcDNA3/neo was co-transfected to select transfected cells using the antibiotic. After 48 hrs of stabilization, the new media containing Geneticin (500 μg/ml) was added and changed for appropriate time periods. Two weeks later, the colonies that survived were selected and propagated under Geneticin. After another two weeks of antibiotic selection, the luciferase activities were determined for each colony after treatment with LPS (100 ng/ml).
These stably transfected cell lines eliminated the necessity of transfecting plasmids for the reporter gene and the internal control. Thus, inhibitory or stimulatory effects of various fatty acids on agonist-induced TLR activation were quantitatively determined in a high throughput mode using 96 well plates. […] Therefore, NFκB activation and COX-2 expression was used as readouts for agonist-induced TLR activation, and its suppression or potentiation by fatty acids in this experiment. […]
(FIG. 10A). […] After 8 hrs, luciferase activities were determined. Data are expressed as a percentage of PamCAG treatment alone.

CCCCCCCCCCCC(=O)O [lauric acid]
lauric acid-induced COX-2 expression on co-transfection of dominant-negative IkBa (COX-2 promoter [1]; 24 hours): inhibited
lauric acid-induced COX-2 expression on co-transfection of dominant-negative TLR4 [DTLR4 (P712H)] (COX-2 promoter [1]; 24 hours): inhibits
lauric acid-induced COX-2 expression on co-transfection of dominant-negative PPARγ (COX-2 promoter [1]; 24 hours, with or without PPRE-like sequences): not altered
lauric acid-induced COX-2 expression, promoter with mutated NFκB site vs wild-type site (COX-2 promoter [1]; COX-2 promoter reporter with mutated NFκB site): significantly reduced
effect on LPS-induced COX-2 expression (reporter gene) (COX-2 promoter [2]; LPS 200 ng/ml 8 hrs): potentiated
effect on PamCAG-induced COX-2 expression (COX-2 promoter [2]; PamCAG 500 ng/ml 8 hrs): potentiated
